This note sets out measurements from publication PMC6150234, “HPLC Analysis and Biochemical Characterization of LOX from Eschscholtzia californica Cham” (Molecules : A Journal of Synthetic Chemistry and Natural …, 2017).

The assay concerns T1, California poppy LOX (purified LOX from California poppy seedlings; 9/13-LOX).
T1 construct: 85 kDa on SDS-PAGE
The assay is described as follows: A234 spectrophotometry; Lineweaver-Burk. It counts as biochemical, Eschscholzia californica. The conditions noted are these: 100 mM potassium phosphate pH 6.5, room temperature; 0.476-1.33 mM LA.

On to `CCCCC/C=C\C/C=C\CCCCCCCC(=O)O` [linoleic acid], for which the Michaelis constant (Km) (as a rule, the substrate concentration at which the rate is half of its maximum) was found to be 2600 µM.
